The target of this assay is CX3CR1 (Homo sapiens (Human), UniProt P49238). The assay can be described thus: hCX3CR1 [3H]-AZD8797 competitive binding assay (filter). To be noted: CHO-hCX3CR1 membranes, 2 nM [3H]-AZD8797. In short, it runs like this:
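CHO-hCX3CR1 membranes (9 μg/well) were incubated 2 h at room temperature with 2 nM [3H]-AZD8797 and varying competitor concentrations. Buffer: 25 mM HEPES pH 7.4, 10 mM MgCl2, 1 mM CaCl2, 0.5% BSA, 1% DMSO. Bound ligand was collected by vacuum filtration, washed in ice-cold buffer with 500 mM NaCl, and counted by scintillation.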

Where only a bound is given, the exact number is not on record here.

Sequence of CX3CR1 (P49238 whole entry): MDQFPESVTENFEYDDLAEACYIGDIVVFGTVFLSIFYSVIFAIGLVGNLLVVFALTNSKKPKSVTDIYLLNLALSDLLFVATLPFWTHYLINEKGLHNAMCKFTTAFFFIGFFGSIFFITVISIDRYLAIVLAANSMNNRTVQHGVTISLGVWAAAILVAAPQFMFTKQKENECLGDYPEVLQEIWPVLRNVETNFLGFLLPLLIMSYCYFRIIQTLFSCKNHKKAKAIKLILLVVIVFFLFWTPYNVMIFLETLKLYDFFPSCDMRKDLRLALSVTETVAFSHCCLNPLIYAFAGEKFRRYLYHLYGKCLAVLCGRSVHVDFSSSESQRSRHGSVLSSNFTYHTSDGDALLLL

`CC(C)C[C@H](CO)Nc1nc(CCC(F)(F)c2ccc(Cl)cc2)nc(NS(C)(=O)=O)n1` [Example 153, (R)—N-(4-(3-(4-Chlorophenyl)-3,3-difluoropropyl)-6-((1-hydroxy-4-methylpentan-2-yl)amino)-1,3,5-triazin-2-yl)methanesulfonamide] showed an IC50 of more than 10000 nM. As for `Cc1ccc(F)c(C(C)Cc2nc(N[C@@H](CO)CC(C)C)nc(NS(C)(=O)=O)n2)n1` (stereo partly drawn) [Example 155, N-(4-(2-(3-Fluoro-6-methylpyridin-2-yl)propyl)-6-(((R)-1-hydroxy-4-methylpentan-2-yl)amino)-1,3,5-triazin-2-yl)methanesulfonamide], the IC50 came to 1550 nM. In the case of `CC(C)C[C@H](CO)Nc1nc(CC(C)c2ccc(C(=O)N3CCOCC3)cc2)nc(NS(C)(=O)=O)n1` (stereo partly drawn) [Example 156, N-(4-(((R)-1-Hydroxy-4-methylpentan-2-yl)amino)-6-(2-(4-(morpholine-4-carbonyl)phenyl)propyl)-1,3,5-triazin-2-yl)methanesulfonamide], the IC50 was 1960 nM. In turn, `CC(C)C[C@H](CO)Nc1nc(CC(C)c2cccc(-c3ccccc3)c2)nc(NS(C)(=O)=O)n1` (stereo partly shown) [Example 157] displayed a half-maximal inhibitory concentration (IC50) of 4350 nM. In turn, `CC(C)C[C@H](CO)Nc1nc(CC(C)c2cccc(C3(O)CC3)c2)nc(NS(C)(=O)=O)n1` (stereo partly drawn) [Example 158, N-(4-(((R)-1-Hydroxy-4-methylpentan-2-yl)amino)-6-(2-(3-(1-hydroxycyclopropyl)phenyl)propyl)-1,3,5-triazin-2-yl)methanesulfonamide] registered an IC50 of 2700 nM. Compared with the last molecule, the IC50 is about 1.6-fold lower.

`CC(C)C[C@H](CO)Nc1nc(CC(C)c2ccc(OC(C)C)nc2)nc(NS(C)(=O)=O)n1` (stereo partly drawn) [Example 159, N-(4-(((R)-1-Hydroxy-4-methylpentan-2-yl)amino)-6-(2-(6-isopropoxypyridin-3-yl)propyl)-1,3,5-triazin-2-yl)methanesulfonamide] came in with an IC50 of 264 nM. For `COc1c(F)cccc1C(C)Cc1nc(N[C@@H](CO)CC(C)C)nc(NS(C)(=O)=O)n1` (stereo partly drawn) [Example 160, N-(4-(2-(3-Fluoro-2-methoxyphenyl)propyl)-6-(((R)-1-hydroxy-4-methylpentan-2-yl)amino)-1,3,5-triazin-2-yl)methanesulfonamide], the IC50 is 350 nM.

The molecule `CC(C)C[C@H](CO)Nc1nc(CC(C)c2ccc(F)c(C#N)c2)nc(NS(C)(=O)=O)n1` (stereo partly shown) [Example 161] had a 50% inhibitory concentration (IC50) of 1250 nM. Then `COc1cc(F)ccc1C(C)Cc1nc(N[C@@H](CO)CC(C)C)nc(NS(C)(=O)=O)n1` (stereo partly drawn) [Example 162, N-(4-(2-(4-Fluoro-2-methoxyphenyl)propyl)-6-(((R)-1-hydroxy-4-methylpentan-2-yl)amino)-1,3,5-triazin-2-yl)methanesulfonamide], with 1320 nM; and `CC(C)C[C@H](CO)Nc1nc(CC(C)c2cccc3c2NC(=O)C3)nc(NS(C)(=O)=O)n1` (stereo partly drawn) [Example 163, N-(4-(((R)-1-Hydroxy-4-methylpentan-2-yl)amino)-6-(2-(2-oxoindolin-7-yl)propyl)-1,3,5-triazin-2-yl)methanesulfonamide], with 5230 nM.

For `COc1cccc(C(C)Cc2nc(N[C@@H](CO)CC(C)C)nc(NS(C)(=O)=O)n2)n1` (stereo partly drawn) [Example 166, N-(4-(((R)-1-Hydroxy-4-methylpentan-2-yl)amino)-6-(2-(6-methoxypyridin-2-yl)propyl)-1,3,5-triazin-2-yl)methanesulfonamide], the IC50 stood at 726 nM. As to `CCOc1ccc(C(C)Cc2nc(N[C@@H](CO)CC(C)C)nc(NS(C)(=O)=O)n2)cn1` (stereo partly drawn) [Example 167, N-(4-(2-(6-Ethoxypyridin-3-yl)propyl)-6-(((R)-1-hydroxy-4-methylpentan-2-yl)amino)-1,3,5-triazin-2-yl)methanesulfonamide], the IC50 came out at 310 nM. `CC(C)C[C@H](CO)Nc1nc(CC(C)c2ccc(C#N)c(Cl)c2)nc(NS(C)(=O)=O)n1` (stereo partly drawn) [Example 169, N-(4-(2-(3-Chloro-4-cyanophenyl)propyl)-6-(((R)-1-hydroxy-4-methylpentan-2-yl)amino)-1,3,5-triazin-2-yl)methanesulfonamide] showed an IC50 of 815 nM. This IC50 is about 2.6-fold higher than that of the molecule before.

The IC50 is the point on the concentration scale where inhibition reaches its midpoint. The low end stands for higher potency, the high end for lower potency.

(Values after patent US20240199558A1, “2,4,6-TRISUBSTITUTED 1,3,5-TRIAZINES AS MODULATORS OF CX3CR1” (ASTRAZENECA AB, priority 2022, published 2024).)
